Assay results reported in PubChem BioAssay AID330 (DTP/NCI, 2004).
“And” between values parts separate entries of the source, which are not always exact repeats. Identical values can stand only once. Toxic doses and inconclusive results are not listed. Rule for the calls: active = survival T/C of 150% or more; inactive = T/C below 125% in these data.

System: P388 leukemia ip, CD2F1 mice, survival T/C
Test: NCI In Vivo Anticancer Drug Screen. Data for tumor model P388 Leukemia (intraperitoneal) in CD2F1 (CDF1) mice
Conditions: endpoint: median survival time, higher = longer survival
In short: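 Mice carrying the transplanted tumor received test compound or vehicle. Survival was recorded in each group, and the value is the treated-group measurement divided by that of the vehicle-treated control group.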

[1] = dose: 12.5 mg/kg/injection, schedule: Q01DX009 (ip), vehicle: saline with Tween-80
[2] = dose: 25.0 mg/kg/injection, schedule: Q01DX009 (ip), vehicle: saline with Tween-80
[3] = dose: 50.0 mg/kg/injection, schedule: Q01DX009 (ip), vehicle: saline with Tween-80
[4] = dose: 100.0 mg/kg/injection, schedule: Q01DX001 (ip), vehicle: saline with Tween-80
[5] = dose: 200.0 mg/kg/injection, schedule: Q01DX001 (ip), vehicle: saline with Tween-80
[6] = dose: 60.0 mg/kg/injection, schedule: Q01DX005 (ip), vehicle: saline with Tween-80
[7] = dose: 120.0 mg/kg/injection, schedule: Q01DX005 (ip), vehicle: saline with Tween-80
[8] = dose: 240.0 mg/kg/injection, schedule: Q01DX005 (ip), vehicle: saline with Tween-80
[9] = dose: 50.0 mg/kg/injection, schedule: Q01DX005 (ip), vehicle: Klucel (hydroxypropylcellulose) (HPC)
[10] = dose: 100.0 mg/kg/injection, schedule: Q01DX005 (ip), vehicle: Klucel (hydroxypropylcellulose) (HPC)
[11] = dose: 12.5 mg/kg/injection, schedule: Q01DX005 (ip), vehicle: saline with Tween-80
[12] = dose: 25.0 mg/kg/injection, schedule: Q01DX005 (ip), vehicle: saline with Tween-80
[13] = dose: 50.0 mg/kg/injection, schedule: Q01DX005 (ip), vehicle: saline with Tween-80
[14] = dose: 200.0 mg/kg/injection, schedule: Q01DX005 (ip), vehicle: saline with Tween-80

Measured: T/C

O=c1ccocc1OC1OC(CO)C(O)C(O)C1O (stereo not given)
inactive: dose: 5.75 mg/kg/injection, schedule: Q01DX005 (ip), vehicle: saline 95 % of control | dose: 11.5 mg/kg/injection, schedule: Q01DX005 (ip), vehicle: saline 113 % of control | dose: 23.0 mg/kg/injection, schedule: Q01DX005 (ip), vehicle: saline 106 % of control | dose: 46.0 mg/kg/injection, schedule: Q01DX005 (ip), vehicle: saline 105 % of control

CC(=O)OCc1ccc2ccccc2c1
inactive: dose: 100.0 mg/kg/injection, schedule: Q01DX009 (ip), vehicle: saline sonified 100 % of control | dose: 200.0 mg/kg/injection, schedule: Q01DX009 (ip), vehicle: saline sonified 100 % of control | dose: 400.0 mg/kg/injection, schedule: Q01DX009 (ip), vehicle: saline sonified 100 % of control

O=[N+]([O-])c1nc2ccccc2[nH]1
inactive: dose: 6.25 mg/kg/injection, schedule: Q01DX009 (ip), vehicle: saline with Tween-80 101 % of control | [1] 101 % of control | [2] 111 % of control | [3] 108 % of control

CC12OC(c3ccccc3)C(C)(OC1c1ccccc1)O2 (stereo not given)
inactive: dose: 60.0 mg/kg/injection, schedule: Q01DX005 (ip), vehicle: Klucel (hydroxypropylcellulose) (HPC) 102 % of control | dose: 120.0 mg/kg/injection, schedule: Q01DX005 (ip), vehicle: Klucel (hydroxypropylcellulose) (HPC) 100 % of control | dose: 240.0 mg/kg/injection, schedule: Q01DX005 (ip), vehicle: Klucel (hydroxypropylcellulose) (HPC) 98 % of control

CN(C)CCP(=O)(O)O
inactive: [4] 95 % of control | [5] 100 % of control | dose: 400.0 mg/kg/injection, schedule: Q01DX001 (ip), vehicle: saline with Tween-80 100 % of control

c1csc(C2N3CCN(CC3)C(c3cccs3)N3CCN2CC3)c1 (stereo not given)
inactive: [6] 100 % of control | [7] 104 % of control | [8] 103 % of control

Cc1ccc(/C=N\NC(=O)NN)cc1
inactive: dose: 25.0 mg/kg/injection, schedule: Q01DX005 (ip), vehicle: Klucel (hydroxypropylcellulose) (HPC) 97 % of control | [9] 102 % of control

O=C1CC2OCC=C3CN4CCC56c7ccccc7N1C5C2C3CC46 (stereo not given)
inactive: dose: 0.2 mg/kg/injection, schedule: Q01DX009 (ip), vehicle: saline with Tween-80 100 % of control | dose: 0.4 mg/kg/injection, schedule: Q01DX009 (ip), vehicle: saline with Tween-80 102 % of control | dose: 0.8 mg/kg/injection, schedule: Q01DX009 (ip), vehicle: saline with Tween-80 97 % of control

Cc1ccnc(NS(=O)(=O)c2ccc(NC(=O)Nc3ccc(Cl)c(C(F)(F)F)c3)cc2)n1
inactive: [9] 99 % of control | [10] 104 % of control | dose: 200.0 mg/kg/injection, schedule: Q01DX005 (ip), vehicle: Klucel (hydroxypropylcellulose) (HPC) 96 % of control

Nc1nnc(COc2ccc(Cl)cc2)n1N
inactive: [6] 107 % of control | [7] 108 % of control

O=C(O)c1ccc2c3c(n[se]c13)-c1ccccc1C2=O
inactive: [9] 99 % of control | [10] 103 % of control

CC(C)=CO[Si](C)(C)C
inactive: dose: 50.0 mg/kg/injection, schedule: Q01DX009 (ip), vehicle: olive oil, sesame oil, peanut oil 99 % of control | dose: 100.0 mg/kg/injection, schedule: Q01DX009 (ip), vehicle: olive oil, sesame oil, peanut oil 99 % of control | dose: 200.0 mg/kg/injection, schedule: Q01DX009 (ip), vehicle: olive oil, sesame oil, peanut oil 114 % of control

CC(=O)Nc1ccc(SSc2ccc(NC(C)=O)c3cccnc23)c2ncccc12
inactive: dose: 0.78 mg/kg/injection, schedule: Q01DX005 (ip), vehicle: saline with Tween-80 91 % of control | dose: 1.56 mg/kg/injection, schedule: Q01DX005 (ip), vehicle: saline with Tween-80 91 % of control | dose: 3.13 mg/kg/injection, schedule: Q01DX005 (ip), vehicle: saline with Tween-80 90 % of control | [11] 86 % of control | [12] 95 % of control | [13] 115 % of control

CCOC(=O)C(=CNc1cccc2c(O)cccc12)C(=O)OCC
inactive: [11] 90 % of control | [12] 93 % of control | [13] 97 % of control | [14] 95 % of control

CC(=O)c1c(O)c(C)c(O)c2c1OC1=Cc3c(c(C)nn3C)C(=O)C12C (stereo not given)
inactive: dose: 6.25 mg/kg/injection, schedule: Q01DX009 (ip), vehicle: gum acacia 100 % of control and 109 % of control | dose: 50.0 mg/kg/injection, schedule: Q01DX009 (ip), vehicle: gum acacia 119 % of control and 92 % of control and 93 % of control

COC(=O)C1=CCC23CC[C@H](C(C)(/C=C/C=C(\C)C(=O)O)OC2=O)[C@]3(O)CC1 (stereo not given in full)
inactive: dose: 3.88 mg/kg/injection, schedule: Q01DX005 (ip), vehicle: sodium bicarbonate 87 % of control | dose: 7.75 mg/kg/injection, schedule: Q01DX005 (ip), vehicle: sodium bicarbonate 100 % of control | dose: 15.5 mg/kg/injection, schedule: Q01DX005 (ip), vehicle: sodium bicarbonate 103 % of control | dose: 31.0 mg/kg/injection, schedule: Q01DX005 (ip), vehicle: sodium bicarbonate 108 % of control

CN(C)c1ccc(N=C2C=CC(=O)C(Cl)=C2)cc1
inactive: dose: 25.0 mg/kg/injection, schedule: Q01DX009 (ip), vehicle: suspension in saline 106 % of control | dose: 50.0 mg/kg/injection, schedule: Q01DX009 (ip), vehicle: suspension in saline 115 % of control

CCCCc1n(O)c(-c2ccccc2)c(C)[n+]1[O-]
inactive: [1] 100 % of control | [2] 92 % of control | [3] 88 % of control and 91 % of control

c1ccc2c(c1)N=Nc1ccccc1OCCOCCOCCO2
inactive: dose: 25.0 mg/kg/injection, schedule: Q01DX001 (ip), vehicle: saline with Tween-80 103 % of control | dose: 50.0 mg/kg/injection, schedule: Q01DX001 (ip), vehicle: saline with Tween-80 102 % of control | [4] 92 % of control

COc1cccc(NCNC2Nc3ccccc3N2)c1
inactive: dose: 15.0 mg/kg/injection, schedule: Q01DX005 (ip), vehicle: saline with Tween-80 106 % of control | dose: 30.0 mg/kg/injection, schedule: Q01DX005 (ip), vehicle: saline with Tween-80 107 % of control | [6] 107 % of control

CC(=O)NC1C(OC(C)=O)OC(CS[As](C)C)C(OC(C)=O)C1OC(C)=O (stereo not given)
inactive: [2] 118 % of control | [3] 111 % of control

COc1ccc2sc3c(C)ccc(NCCC4CCCN5CCCCC45)c3c(=O)c2c1 (stereo not given)
inactive: [4] 87 % of control | [5] 87 % of control

CCCOCn1cc(F)c(=O)n(COCCC)c1=O
inactive: dose: 5.62 mg/kg/injection, schedule: Q04DX002 (ip), vehicle: water 95 % of control | dose: 11.25 mg/kg/injection, schedule: Q04DX002 (ip), vehicle: water 93 % of control | dose: 22.5 mg/kg/injection, schedule: Q04DX002 (ip), vehicle: water 92 % of control | dose: 45.0 mg/kg/injection, schedule: Q04DX002 (ip), vehicle: water 92 % of control | dose: 90.0 mg/kg/injection, schedule: Q04DX002 (ip), vehicle: water 91 % of control | dose: 180.0 mg/kg/injection, schedule: Q04DX002 (ip), vehicle: water 95 % of control

Cc1c(-c2c(Cl)cccc2Cl)noc1CN(C)C
inactive: [6] 101 % of control | [7] 100 % of control | [8] 92 % of control

C=CN=NNc1cc(OC)ccc1OC
inactive: dose: 100.0 mg/kg/injection, schedule: Q04DX003 (ip), vehicle: saline + Tween-80 + alcohol 105 % of control | dose: 200.0 mg/kg/injection, schedule: Q04DX003 (ip), vehicle: saline + Tween-80 + alcohol 103 % of control | dose: 400.0 mg/kg/injection, schedule: Q04DX003 (ip), vehicle: saline + Tween-80 + alcohol 102 % of control

C=C1C(=O)OC2/C=C(\C)C(O)C/C=C(/C)C(OC(=O)/C(C)=C\C)C(O)C12 (stereo not given)
inactive: dose: 6125.0 micrograms/kg/injection, schedule: Q01DX005 (ip), vehicle: Klucel (hydroxypropylcellulose) (HPC) 110 % of control | dose: 12250.0 micrograms/kg/injection, schedule: Q01DX005 (ip), vehicle: Klucel (hydroxypropylcellulose) (HPC) 115 % of control | dose: 24500.0 micrograms/kg/injection, schedule: Q01DX005 (ip), vehicle: Klucel (hydroxypropylcellulose) (HPC) 109 % of control | dose: 49000.0 micrograms/kg/injection, schedule: Q01DX005 (ip), vehicle: Klucel (hydroxypropylcellulose) (HPC) 114 % of control

O=c1[nH]cnc2nc(S(=O)(=O)F)[nH]c12
inactive: [13] 103 % of control | dose: 100.0 mg/kg/injection, schedule: Q01DX005 (ip), vehicle: saline with Tween-80 103 % of control | [14] 103 % of control
